Laboratory results: a melting point compilation (Tetko et al.; mined from patent text by program, amines drawn as free bases though some values may be those of a salt)

Row | Structure (SMILES) | melting point [°C]
1 | N=C(Nc1ccccc1-c1ccccc1)N1CCCC(O)C1 (stereo not given) | 144 to 145
2 | CCc1c(N)c(C(N)=O)nn1C1CN(CC)C1 | 155 to 157
3 | Cc1cc(Cl)cc(COc2cccc(OCc3ccc4cc(F)ccc4n3)c2)c1OCC(=O)O | 140 to 141
4 | CCCCCCCCCC(=O)Cc1ccc(OCc2ccccc2)c(OCc2ccccc2)c1 | 68
5 | CCC1(CC)Cc2cc(OC)c(Cl)c(Cl)c2C1=O | 118
6 | CCOC(=O)c1[nH]ccc1N | 197 to 200
7 | O=C(Nc1cc(Cl)ccc1C(=O)O)NS(=O)(=O)c1ccc(OCCN2CCN(c3ccccc3)CC2)cc1 | 177 to 179
8 | O=S(=O)(c1ccccc1)C(CC(F)(F)F)c1ccc(C(O)(C(F)(F)F)C(F)(F)F)cc1 (stereo not given) | 151
9 | CCCCC=CC(=O)Nc1ccccc1 | 50
10 | O=C(Oc1ccccc1)N1CCN(c2nn(S(=O)(=O)c3ccccc3)c3ccccc23)CC1 | 112 to 114
11 | CCCC1(C)CC(=O)NC(=O)C1 | 110 to 112
12 | CON=C(C(=O)O)c1nc(NC=O)sc1Cl | 175 to 177
13 | CC(Cl)(Cl)C(NC(=O)c1cc(F)cc(F)c1)Nc1c(Nc2cccnc2)c(=O)c1=O (stereo not given) | 231 to 232
14 | CCCn1nc2c(N)nc3ccccc3c2c1CCCc1cc[nH]c1 | 173 to 174
15 | COC(=O)c1cc(C(=O)OC)cc(P(c2ccccc2)c2ccccc2)c1 | 103 to 104
16 | COc1ccc(C=Cc2ncn(CC(O)(Cn3cncn3)c3ccc(F)cc3F)n2)cc1 (stereo not given) | 150 to 152
17 | COc1cccc2sc(C3CCNC(C)C3)cc12 (stereo not given) | 70 to 73
18 | O=S(=O)(O)CC(O)CNCC(O)O (stereo not given) | 189 to 190
19 | O=C(O)CC1COc2cc(Cl)c(Cl)cc2O1 (stereo not given) | 145 to 147
20 | CCOc1ncc(C(C)=O)cc1C(=O)OC | 111 to 112
21 | CCc1cc(NCc2ccc(-c3ccccc3-c3nnn[nH]3)cc2)n2nccc2n1 | 177 to 179
22 | O=C(O)c1cc2cc(Cl)c(Cl)cc2nc1N[C@@H](Cc1ccccc1)C(=O)O | 141 to 143
23 | COc1ccc(CCNC(=O)Nc2ccccc2CCc2cc(C(C)(C)C)c(O)c(C(C)(C)C)c2)cc1OC | 158 to 160

Row | Structure (SMILES) | melting point [°C]
24 | Cc1cc(C#N)cc(C)c1OCCCCCc1cc(CO)no1 | 63 to 64
25 | O=C(NC1CCN(C(=O)CCCC2(C(=O)NCC(F)(F)F)c3ccccc3-c3ccccc32)CC1)c1ccccc1Oc1ccccc1 | 96 to 98
26 | CN(C)C=Nc1nc2c(s1)C(=O)C(=CN(C)C)CC2 | 185 to 186
27 | CS(=O)(=O)c1ccc(-c2c(F)c(F)c(F)c(F)c2-c2ccc(F)cc2)cc1 | 134 to 135
28 | O=C(NC1CC1)c1ccc(N2CCN(Cc3cnc4c(c3)NC(=O)[C@@H]3CCCN43)CC2)cc1 | 265 to 268
29 | CCc1noc(-c2cc3c(cn2)[nH]c2cccc(Oc4ncccn4)c23)n1 | 254 to 256
30 | OCc1cc(CCCCCCCOc2ccc(C3=NCCO3)cc2)on1 | 122 to 124
31 | COC(=O)c1cc(N)cc(N)c1SCc1ccccc1 | 80 to 82
32 | CCOC(=O)c1c(CN(CC)CC)nc2sc3cnccc3c2c1-c1ccc(OC)c(OC)c1 | 163 to 165
33 | COc1cc(C=CC(=O)CCCCO)cc(OC)c1 | 78 to 80
34 | C=CCCCCOc1ccc(OCCCCC=C)cc1 | 29 to 30
35 | CC(C)(C)NCC(O)c1cc(F)c(N)cc1F (stereo not given) | 115 to 116
36 | CCCCCCCC/C=C\c1ccc(C(=O)NOCc2ccccc2)cc1 | 70 to 71
37 | O=CC(=Cc1ccc(OC(=O)c2ccccc2F)cc1)C(C=O)=Cc1ccc(OC(=O)c2ccccc2F)cc1 | 197 to 199
38 | CS(=O)(=O)NC1CC(N)(C(=O)O)C2C(C(=O)O)C12 (stereo not given) | > 275
39 | Cc1nc(-c2cccnc2)sc1-c1ccnc(Nc2ccc(N3CCCC3)cc2)n1 | 212 to 214
40 | N#Cc1ccc2c(c1)CCC(CO)O2 (stereo not given) | 85
41 | COc1cc(OC)c2c(=O)c3ccccc3oc2c1 | 170 to 171
42 | COCCOc1ccc(Nc2nc(Nc3cc4c(cc3OC)CCN(CC(=O)N(C)C)CC4)ncc2Cl)c(OC)c1 | 51 to 59
43 | CCCc1nc2c(N)nc(C)c(C)c2n1NC1CCCCC1 | 177 to 179
44 | CCCCS(=O)(=O)N[C@@H](Cc1ccc(NC(=O)NC(=O)c2ccc(C#N)cc2)cc1)C(=O)OC(C)(C)C | 171 to 173
45 | O=C1N[C@H](Cc2cccc(OCC(F)(F)F)c2)[C@H](c2ccc(F)cc2)O1 (racemic) | 148 to 149

Second part, the compound after the results:

Row | melting point [°C] | Structure (SMILES)
46 | 102 to 104 | O=C(CN1CCC(Cc2ccccc2)CC1)Nc1cccc([N+](=O)[O-])c1
47 | 153 to 154 | CCc1ccc(OC(C)=O)c(C2(OC(C)=O)C(=O)c3ccccc3C2=O)c1
48 | 98.4 to 101 | O=[N+]([O-])c1ccc(S(=O)(=O)N2CC3CN(Cc4ccccc4)CC(C2)O3)cc1
49 | 173 to 175 | CC(=O)Nc1c(C(=O)c2ncccc2C)[nH]c2cc(Cl)ccc12
50 | 245 to 247 | Cc1c(-c2ccc(F)cc2)[nH]c(N2CCOCC2)c1C#N
51 | 174 to 175 | O=C(Nc1c(C(O)(C(F)(F)F)C(F)(F)F)ccc2ccccc12)c1ccc(Cl)c(Cl)c1
52 | 165 to 167 | COc1cccc(OC)c1C(=O)Nc1nnc(C(C)(C)CSC)s1
53 | 229 to 230 | CCOC(=O)c1cn2c(cc(Cl)c3ccc(Cl)cc32)n1
54 | 108 to 109 | CC(C)C(=O)c1c(C2CC2)nn2ccccc12
55 | > 260 | O=C1c2ccccc2C(=O)c2sc(-c3ccc(F)cc3F)nc21
56 | 228 to 231 | CCC1CCSc2ccc(Nc3ncc(Cl)c(Nc4ccccc4C(=O)NC)n3)nc2C1 (stereo not given)
57 | 190 to 192 | O=C(O)COc1ccc(C2=CC(=O)CC(c3ccc(F)cc3)C2)c(Cl)c1Cl (stereo not given)
58 | 100 to 103 | CC(C)CC(C#N)NC(=O)C(CC(C)C)NC(=O)c1ccc(Cn2ccnc2)cc1 (stereo not given)
59 | 85 to 87 | CN1C(=O)CCC1c1cncc(Br)c1 (stereo not given)
60 | 94 | CCc1ccc(C2CCCN2S(=O)(=O)c2ccc(Cl)cc2)cc1 (racemic)
61 | 235 to 240 | CCNC(=O)N1CCn2nc(-c3ccc(F)cc3)c(-c3ccncc3)c2N1
62 | 135 to 138 | CCc1ncc2n1N=C(c1ccc(N)cc1)c1cc3c(cc1C2)OCO3
63 | 154 to 156 | NS(=O)(=O)c1ccc(-c2cnn(CC(F)(F)F)c(=O)c2-c2ccc(Cl)cc2)cc1
64 | 112 to 114 | CC(C)c1cccc(C(C)C)c1NC(=O)N(Cc1ccccc1)CC1(c2ncccn2)CCCCC1
65 | 162 to 165 | CC1(C)CC(NS(C)(=O)=O)c2cc(OCc3ccccc3)ccc2O1 (stereo not given)
66 | 177 to 179 | O=C(Nc1cccc2cc(Cn3ccnc3)cnc12)c1c(Cl)cccc1Cl
67 | 120 to 125 | COc1cccc(CCC(=O)c2c[nH]cn2)c1OC
68 | 54 | O=C1CC2(CCCC2)c2ccc(Cl)cc21
69 | 128 to 133 | CCc1nc(N)nc(N)c1CCCc1cccc(-c2ccccc2)c1
70 | 119 to 121 | CCc1noc(C)c1-c1c(C(O)CN(C)C)c2ccccc2n1C (stereo not given)
71 | 125 to 132 | CCCN(CCc1coc2c(OC)cccc12)C1COc2c(F)ccc(C(N)=O)c2C1 (stereo not given)
72 | 108 to 110 | O=C(Cc1ccc(Cl)cc1)N1CCC2(CC1)Cc1ccccc1O2
73 | > 300 | CCNc1ccc2c(c1)CN(c1c(F)cc3c(=O)c(C(=O)O)cn4c3c1OCC4C)C2 (stereo not given)

Row | melting point [°C] | Structure (SMILES)
74 | 200 to 201 | O=C(c1ccccc1)N1CCc2cc(S(=O)(=O)N3CCN(c4cccc(Cl)c4)CC3)ccc21
75 | 298 to 300 | Cc1c(C=CCO)[nH]c(=O)c2c1ccc1nc(Nc3c(Cl)cccc3Cl)n(C)c12
76 | 250 to 252 | Nc1cccc2c1CN(C1CCC(=O)NC1=O)C2=O (stereo not given)
77 | 202 to 206 | CCOC(=O)c1sc2c(ccc(=O)n2-c2ccccc2)c1Br
78 | 188 to 192 | Cc1cc(C#CC2CC2)cc(C)c1Oc1ccc([N+](=O)[O-])c(Nc2ccc(C#N)cc2)n1
79 | 127 to 129 | COc1ccc(C(=O)c2ccccc2F)c(O)c1Br
80 | 128 to 133 | COc1ccc(C2CNC(=O)C2)cc1OCC(CN1CCN(c2ccccc2)CC1)OC(C)=O (stereo not given)
81 | 130 to 134 | CCON=C(C)c1ccc2c(c1)ncn2-c1cccc(COCc2ncnn2C)c1
82 | 109 to 110 | CCOC(=O)NN=C(CO)c1cccc(Cl)c1
83 | 107 to 109 | CON=C(C(=O)OC)c1ccccc1/C=C(\Cl)C(=O)O
84 | 170 to 172 | CC(=O)Nc1ccc(OC(C)C(=O)O)cc1 (stereo not given)
85 | 179 to 181 | O=C(O)COc1cc(Cl)ccc1C(=O)NCc1cccc(C(F)(F)F)c1
86 | 142 to 145 | O=C1OC2(CC(c3ccc(F)cc3)=NO2)c2ccccc21 (stereo not given)
87 | 162 to 164 | COc1cc(C(CC(=O)O)N2Cc3ccccc3C2=O)cc(OC)c1OC (stereo not given)
88 | 173 to 175 | NC(=O)N1CC(c2ccccc2)C(c2ccc(Cl)cc2)=N1 (stereo not given)
89 | 152 | COCCN(CCOC)C1CCN(c2ccc(NC(=O)c3cnn(-c4ccc(Cl)cc4)c3C)cc2C#N)CC1
90 | 207 to 208 | COC(=O)c1sccc1Nc1ccc(Cl)cc1[N+](=O)[O-]
91 | 176 to 178 | CC(C)(C)OC(=O)/C=C/c1cccc(-c2nc(=O)c3ccccc3s2)n1
92 | 168 to 169 | NC(=O)Cc1ccc(OC[C@@H]2CO2)cc1
93 | 121 to 124 | CC1(C)CN2C(=NS(=O)C2=Nc2ccc(Cl)cc2)S1 (stereo not given)
94 | 226 to 229 | CC(C)(C)OC(=O)Cc1n[nH]c2c(=O)[nH]c3cc(Cl)ccc3c(=O)c12
95 | 198 to 199 | COc1ccc(-n2c(=O)oc3ccc(-c4ccc(F)cc4F)cc3c2=O)cc1OC
96 | 205 to 206 | c1ccc2c(-c3nnn[nH]3)cccc2c1
97 | 175 to 176 | CS(=O)(=O)c1ccc(Oc2cc(OCc3cccc(Cl)n3)c3[nH]c(C4=NCC(CC(=O)O)S4)cc3c2)cc1 (stereo not given)
98 | 123 to 125 | O=C(CNC1CCCCC1)Nc1ccc([N+](=O)[O-])cc1
99 | 235 to 237 | O=C(c1ccc(F)cc1)N1CCN(S(=O)(=O)c2ccc(Nc3ccnc4cc(Cl)ccc34)cc2)CC1
100 | 211 to 213 | OCc1nc2cnc3ccccc3c2n1Cc1ccccc1
